Activity calls are given as the source filed them.
What was measured:
[1] = target: T1, Neuropeptide Y receptor type 1 (Homo sapiens, UniProt P25929); experiment: Fluorescence-based counterscreen for agonists of NPY-Y2: cell-based high-throughput dose response assay for agonists of NPY-Y1.; type: functional
T1 sequence (P25929 whole entry): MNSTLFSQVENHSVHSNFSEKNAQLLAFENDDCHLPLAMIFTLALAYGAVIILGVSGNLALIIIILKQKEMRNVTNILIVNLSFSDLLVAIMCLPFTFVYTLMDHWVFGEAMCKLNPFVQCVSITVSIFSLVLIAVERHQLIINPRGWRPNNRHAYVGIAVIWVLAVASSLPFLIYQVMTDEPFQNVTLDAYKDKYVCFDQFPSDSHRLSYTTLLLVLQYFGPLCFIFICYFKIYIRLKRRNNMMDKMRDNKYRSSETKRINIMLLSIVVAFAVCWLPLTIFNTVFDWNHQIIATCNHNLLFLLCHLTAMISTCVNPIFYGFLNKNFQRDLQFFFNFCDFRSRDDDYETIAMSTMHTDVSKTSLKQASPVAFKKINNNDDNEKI

HEK293 [2] = experiment: Fluorescence-based counterscreen for potentiators or agonists of NPY-Y2: cell-based high-throughput dose response assay to identify inhibitors of cyclic nucleotide gated ion channel (CNGC) activity. In this assay, the parental HEK293 cell line transfected with a cyclic-nucleotide gated ion channel (CNGC)-based cAMP sensor is used to measure inhibition of isoproterenol-induced CNGC activity by test compound.; type: functional; conditions: Homo sapiens
[3] = target: T2, Neuropeptide Y receptor type 2 (Homo sapiens, UniProt P49146); experiment: Fluorescence-based cell-based high-throughput dose response assay for agonists of NPY-Y2. [Related pubchem assays: 1703 (Screening assay (CNGC inhibitors).), 1359 (Screening assay (NPY-Y2 potentiators or agonists).), 1304 (Screening assay (NPY-Y1 potentiators or agonists).), 1710 (Screening assay (NPY-Y2 agonists).), 1791 (Summary AID.)]; type: functional
T2 sequence (P49146 whole entry): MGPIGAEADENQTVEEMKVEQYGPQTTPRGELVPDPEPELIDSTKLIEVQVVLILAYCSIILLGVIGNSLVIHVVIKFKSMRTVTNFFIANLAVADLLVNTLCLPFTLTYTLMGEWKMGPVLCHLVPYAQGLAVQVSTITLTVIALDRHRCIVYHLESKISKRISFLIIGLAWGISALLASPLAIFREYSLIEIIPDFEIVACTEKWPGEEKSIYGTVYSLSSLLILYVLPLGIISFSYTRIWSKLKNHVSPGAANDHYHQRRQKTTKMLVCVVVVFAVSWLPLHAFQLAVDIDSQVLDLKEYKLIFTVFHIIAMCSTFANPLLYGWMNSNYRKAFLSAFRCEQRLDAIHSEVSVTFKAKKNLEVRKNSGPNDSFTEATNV

[4] = target: Glyceraldehyde-3-phosphate dehydrogenase (Homo sapiens, UniProt P04406)
[5] = inhibitors of SNCA 5'UTR-driven reporter translation, confirmation, H4 neuroglioma cells, luminescence (AID 1988); type: functional, cell-based
[6] = inhibitors of firefly luciferase expression or activity, dose response, H4 neuroglioma cells, luminescence (AID 1990); type: functional, cell-based
[7] = inhibitors of SNCA 5'UTR-driven translation, confirmation, luminescence, H4 neuroglioblastoma cells, dose confirmation (AID 2454); type: functional, cell-based;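 further: H4 neuroglioblastoma cells carrying an alpha-synuclein 5'UTR luciferase reporter; potency for inhibition of the luciferase signal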
cells [8] = type: functional, cell-based
[9] = luciferase reporter signal reduction – luminescence, H4-C neuroglioblastoma cells, dose response (AID 2458); type: functional, cell-based;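 further: H4 neuroglioblastoma cells stably carrying a luciferase reporter gene fusion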
[10] = Luminescence Cell-Based Dose Response HTS to Identify Inhibitors of 5'UTR Stem-Loop Driven Prion Protein mRNA Translation in H4 Neuroglioblastoma Cells. [Related pubchem assays: 1827 (Project Summary), 1813 (Primary HTS)]; type: functional
[11] = cytotoxicity in HEK-293T cells, dose response, cytotoxicity control for BCR NF-kB inhibitor project, luminescence, B-cell screen hits (AID 489021); type: functional, cell-based;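 further: HEK-293T cells carrying an NF-kB luciferase reporter; cells exposed to compound for about 14 hours before viability readout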
Bcl-2-like protein 10 = target: T3, Bcl-2-like protein 10 (Homo sapiens, UniProt Q9HD36); experiment: displacers of TR3 peptide from Bcl-B, primary screen, selectivity assay for Bfl-1 inhibitor project, biochemical, fluorescence polarization, FITC-TR3 peptide (AID 748);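 further: fluorescence polarization from a fluorescein-labelled TR3 peptide binding purified Bcl-B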
T3 sequence (Q9HD36 whole entry): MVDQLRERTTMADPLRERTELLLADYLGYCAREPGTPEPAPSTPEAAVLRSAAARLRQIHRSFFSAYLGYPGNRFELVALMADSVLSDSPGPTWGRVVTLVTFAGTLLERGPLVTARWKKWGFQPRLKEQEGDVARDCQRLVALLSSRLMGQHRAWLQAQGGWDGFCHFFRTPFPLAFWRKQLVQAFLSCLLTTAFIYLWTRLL

HEK293 [12] = experiment: inhibitors of LMP1-driven NF-kB reporter, dose response, cell-based, HEK293, luciferase, cherry-pick (AID 588343); type: functional; conditions: Homo sapiens
HT-1080 = experiment: cytotoxicity in HT1080 fibrosarcoma cells, cell-based, fluorescence readout (AID 620); type: functional; conditions: Homo sapiens
[13] = target: T4, Ubiquitin-conjugating enzyme E2 N (Homo sapiens, UniProt P61088); type: functional;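 further: Dose-response confirmation in a TR-FRET assay detecting UBC13-driven polyubiquitin chain formation, inhibition measured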
T4 sequence (P61088 whole entry): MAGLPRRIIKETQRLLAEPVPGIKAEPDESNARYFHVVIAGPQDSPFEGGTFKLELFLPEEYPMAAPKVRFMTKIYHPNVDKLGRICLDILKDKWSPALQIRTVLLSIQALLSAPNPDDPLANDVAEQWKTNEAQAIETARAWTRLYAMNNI

[14] = target: Luciferin 4-monooxygenase (Photinus pyralis, UniProt P08659); experiment: Counter Screen for Luciferase-based Assay Positives. [Related pubchem assays: 620, 618, 411 ]
H4 = experiment: Luminescence Cell-Based Dose Response HTS to Identify Activators of 5'UTR Stem-Loop Driven Prion Protein mRNA Translation in H4 Neuroglioblastoma Cells. [Related pubchem assays: 1829 (Project Summary), 1814 (Primary HTS)]; type: functional; conditions: Homo sapiens
[15] = Luminescence Cell-Based Dose Response HTS to Identify Activators of Luciferase Translation or Activity in H4 […] Cells. [Related pubchem assays: 1829 (Project Summary), 1814 (Primary HTS)]; type: functional
Vero [16] = experiment: cells; type: functional; conditions: Chlorocebus sabaeus
[17] = HEp-2 cell cytotoxicity, dose response, cytotoxicity control for RSV inhibitor project, HTS (AID 2410); type: functional; conditions: human respiratory syncytial virus
Vero [18] = experiment: cells; type: functional, cell-based; conditions: Chlorocebus sabaeus
cells [19] = experiment: cells

Chain of Luciferin 4-monooxygenase (P08659 whole entry): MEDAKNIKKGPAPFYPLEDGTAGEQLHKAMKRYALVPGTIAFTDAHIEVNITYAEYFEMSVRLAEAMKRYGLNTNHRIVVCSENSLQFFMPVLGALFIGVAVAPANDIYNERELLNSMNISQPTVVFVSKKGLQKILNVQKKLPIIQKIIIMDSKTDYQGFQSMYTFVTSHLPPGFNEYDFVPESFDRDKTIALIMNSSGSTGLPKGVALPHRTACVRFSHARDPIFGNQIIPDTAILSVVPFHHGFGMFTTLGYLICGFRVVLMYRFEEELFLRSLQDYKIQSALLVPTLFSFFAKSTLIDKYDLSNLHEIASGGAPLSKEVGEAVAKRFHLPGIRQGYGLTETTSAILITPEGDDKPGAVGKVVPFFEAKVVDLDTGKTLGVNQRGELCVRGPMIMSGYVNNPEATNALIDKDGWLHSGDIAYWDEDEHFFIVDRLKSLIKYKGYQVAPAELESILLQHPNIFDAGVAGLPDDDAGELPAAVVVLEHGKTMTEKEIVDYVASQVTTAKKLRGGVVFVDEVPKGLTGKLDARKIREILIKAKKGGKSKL
Chain of Glyceraldehyde-3-phosphate dehydrogenase (P04406 whole entry): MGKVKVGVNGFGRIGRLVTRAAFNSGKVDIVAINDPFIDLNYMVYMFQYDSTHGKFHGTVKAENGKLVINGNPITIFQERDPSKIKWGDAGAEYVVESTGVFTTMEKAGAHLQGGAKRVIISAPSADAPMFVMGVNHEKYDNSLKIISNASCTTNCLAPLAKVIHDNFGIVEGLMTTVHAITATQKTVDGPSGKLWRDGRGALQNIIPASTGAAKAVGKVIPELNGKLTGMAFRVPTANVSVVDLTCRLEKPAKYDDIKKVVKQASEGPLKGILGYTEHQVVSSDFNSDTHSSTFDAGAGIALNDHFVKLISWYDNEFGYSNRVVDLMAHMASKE

**Q.** For O=C(Nc1ccccc1Cl)c1c(F)c(F)c(F)c(F)c1F, which EC50 [1] is on record?
**A.** > 35.4 µM (not active)

**Q.** What about the EC50 (HEK293 [2]) of the same compound?
**A.** > 35.4 µM (not active)

**Q.** What about the EC50 [3] of the same compound?
**A.** > 35.4 µM (not active)

**Q.** For CCC(C(=O)Nc1ccc(O)c(C(=O)O)c1)c1ccccc1 (stereo unspecified), which IC50 [4] is on record?
**A.** > 100 µM (not active)

**Q.** For CC(SC(=S)N1CCCC1)C(=O)O (stereo unspecified), which EC50 [1] is on record?
**A.** > 35.4 µM (not active)

**Q.** What about the EC50 (HEK293 [2]) of the same compound?
**A.** > 35.4 µM (not active)

**Q.** And the EC50 [3]?
**A.** > 35.4 µM (not active)

**Q.** Which results are given for Cn1c2ccc(Br)cc2c2nnc(SCC(=O)O)nc21?
**A.** EC50 [5]: 29.3 µM (active); EC50 [6]: > 60 µM (not active); EC50 [7]: 9.55 µM (active); EC50 (cells [8]): > 12 µM (not active); EC50 [9]: > 12 µM (not active); EC50 [10]: < 0.1 µM (active)

**Q.** With COc1cccc(-c2noc(CCC(=O)NCCc3ccccc3)n2)c1 as the compound, how does the IC50 [11] read?
**A.** > 80 µM (inactive)

**Q.** Which results are given for c1coc(C2Nc3cccc4cccc(c34)N2)c1?
**A.** EC50 [5]: > 120 µM (not active); IC50 (Bcl-2-like protein 10): 42.8 µM (active); EC50 [6]: > 120 µM (not active); EC50 [10]: > 120 µM (not active)

**Q.** Which AC50 (HEK293 [12]) does the source give for COc1ccc(C(=O)Nn2c(SCC(=O)NCc3ccco3)nc3ccccc3c2=O)cc1 here?
**A.** 2.48 µM (active)

**Q.** What about the EC50 (HT-1080) of the same compound?
**A.** > 50 µM (not active)

**Q.** What about the EC50 [5] of the same compound?
**A.** 8.3 µM (active)

**Q.** What about the EC50 [6] of the same compound?
**A.** 8.65 µM (inconclusive)

**Q.** And the IC50 [13]?
**A.** > 20 µM (inactive)

**Q.** What about the EC50 [14] of the same compound?
**A.** 0.44 µM (active)

**Q.** What about the EC50 [10] of the same compound?
**A.** 8.39 µM (active)

**Q.** Which results are given for CCN(CC)C(=O)N1c2ccccc2C=Cc2ccccc21?
**A.** EC50 (H4): > 120 µM (not active); EC50 [15]: 30 µM (active); CC50 (Vero [16]): > 25 µM (active); CC50 [17]: 9.46 µM (active); IC50 (Vero [18]): 4.41 µM (active); IC50 (cells [19]): 2.02 µM (active)

Source: ChEMBL document CHEMBL1201862, “PubChem BioAssay data set” (2004)
